Laboratory results from PubChem BioAssay (NCI).
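Cells were grown in 96-well plates and exposed to each compound for 48 hours at five concentrations; endpoints were interpolated linearly between bracketing concentrations, or set to the highest concentration if not reached. GI50: concentration for 50% inhibition of growth. TGI: total growth inhibition.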

Legend:
Assay in all cases: NCI anticancer screen, dose series, 48 h
U251 CNS = test system: U251 CNS
TK-10 renal = test system: TK-10 renal
IGROV1 ovarian = test system: IGROV1 ovarian
HOP-92 NSCLC = test system: HOP-92 NSCLC
HOP-62 NSCLC = test system: HOP-62 NSCLC
LOX IMVI melanoma = test system: LOX IMVI melanoma
RXF 393 renal = test system: RXF 393 renal
NCI-H460 lung = test system: NCI-H460 lung
M14 melanoma = test system: M14 melanoma
CCRF-CEM leukemia = test system: CCRF-CEM leukemia

SMILES	TGI (U251 CNS) [µM]	TGI (TK-10 renal) [µM]	TGI (IGROV1 ovarian) [µM]	TGI (HOP-92 NSCLC) [µM]	TGI (HOP-62 NSCLC) [µM]	TGI (LOX IMVI melanoma) [µM]	TGI (RXF 393 renal) [µM]	TGI (NCI-H460 lung) [µM]	GI50 (U251 CNS) [µM]	GI50 (TK-10 renal) [µM]	GI50 (IGROV1 ovarian) [µM]	GI50 (HOP-92 NSCLC) [µM]	GI50 (HOP-62 NSCLC) [µM]	GI50 (LOX IMVI melanoma) [µM]	GI50 (M14 melanoma) [µM]	TGI (M14 melanoma) [µM]	GI50 (RXF 393 renal) [µM]	GI50 (NCI-H460 lung) [µM]	TGI (CCRF-CEM leukemia) [µM]	GI50 (CCRF-CEM leukemia) [µM]
CC(C)c1cc(C(C)C)c(S(=O)(=O)NN)c(C(C)C)c1	> 100	> 100	> 100	> 100	> 100	> 100	> 100	> 100	–	–	–	–	–	–	–	–	–	–	–	–
Cc1ccc(-n2c3c(c4c(CN5CCCCC5)c(O)ccc42)CCc2ccccc2C3=O)cc1	> 100	> 100	> 100	88.2	80.7	> 100	> 100	> 100	47.9	> 100	39.9	20	27.5	> 100	> 100	> 100	24.7	> 100	–	–
CC(=O)OC1C=CC2CCN3C(=O)c4cc5c(cc4[C@H]1C23)OCO5 (stereo partly specified)	> 100	> 100	> 100	–	> 100	> 100	> 100	> 100	–	–	–	–	–	–	–	> 100	–	–	> 100	–
Cc1cc2c3ccccc3n(C)c2c2c1C(=O)c1ccccc1C2=O	–	81.3	54.3	35	53.6	–	–	–	–	–	–	–	–	–	–	40.9	–	–	25.5	–
CCOC(=O)CC(=O)ON(C)C(=O)Cc1ccccc1	> 100	–	> 100	–	> 100	> 100	–	> 100	–	–	–	–	–	–	–	> 100	–	–	> 100	–
COC(=O)/C(C#N)=C\N1CCN(C(=O)c2ccco2)C1=S	37	13.2	26.4	43.1	46.8	8	7.71	4.95	6.78	3.63	6.16	14	22.3	2.39	6.35	19.9	3.1	2.47	–	–
CCSC1(SCC)CCN(C=NC(C)(C)C)C1	> 100	> 100	> 100	–	> 100	> 100	> 100	> 100	–	–	–	–	–	–	–	> 100	–	–	> 100	–
c1cncc(CNc2ccccc2-c2nnc(Nc3ccc4c(c3)OCO4)o2)c1	> 42.8	> 46.8	> 100	28.9	> 81	> 100	–	> 100	0.0452	1.18	0.171	0.0904	0.085	0.0547	0.056	> 100	–	0.0435	> 100	0.0801
Nc1nc(-c2ccccc2)c(-c2ccccc2)c(-c2nc(N)nc(-c3ccccc3)c2-c2ccccc2)n1	> 100	> 100	> 100	> 100	> 100	> 100	> 100	> 100	–	–	–	–	–	–	–	> 100	–	–	–	–
COc1ccc(/C=C2\N=C(c3ccccc3)OC2=O)c(OCc2ccccc2)c1	–	–	64.4	–	45.2	> 100	–	> 100	–	–	–	–	–	–	–	> 100	–	–	50.2	–
Cc1ccc(SSCCCS(=O)O)cc1	41.2	> 100	27.4	–	78.4	32.3	72.3	> 100	–	–	–	–	–	–	–	96.8	–	–	–	–
C/C(=N\NC(=O)CC(=O)Nc1ccc(C)cc1)c1cc2ccccc2oc1=O	> 100	> 100	> 100	–	> 100	> 100	> 100	> 100	–	–	–	–	–	–	–	> 100	–	–	> 100	–
COc1ccc(/C=C2/C(=O)N(C(=O)c3ccccc3O)N=C2C)cc1OC	> 100	> 100	–	> 100	> 20.8	> 54.2	0.097	> 100	–	–	–	–	–	–	–	> 55.6	–	–	> 100	–
Cc1cc(C)nc(NS(=O)(=O)c2ccc(Nc3c4ccccc4nc4c(C(=O)NCCN(C)C)ccc(Cl)c34)cc2)n1	10.4	20.3	11.7	–	10.2	2.25	6.31	2.7	–	–	–	–	–	–	–	10.6	–	–	15.7	–
N=C(N)n1ncc(Cl)c(Cl)c1=O	20	35.3	28.7	4.42	–	–	–	31.4	–	–	–	–	–	–	–	4.03	–	–	–	–
O=C(NCCCN1CCN(CCCNC(=O)c2cnc3ccccc3n2)CC1)c1cnc2ccccc2n1	> 100	–	> 100	–	> 100	> 100	> 100	> 100	–	–	–	–	–	–	–	> 100	–	–	> 100	–
CN(C)c1cccc(-c2cc(=O)c3ccccc3[nH]2)c1	> 100	> 100	> 100	–	> 100	> 100	> 100	> 100	–	–	–	–	–	–	–	> 100	35.4	–	> 100	–
COc1cccc(Nc2nc(NNC(=O)Cc3ccccc3)nc(NNC(=O)c3ccncc3)n2)c1	> 100	> 100	> 100	–	> 100	> 100	> 100	> 100	> 100	> 100	> 100	–	> 100	–	–	> 100	–	> 100	> 100	> 100
CC(=O)CC(=O)CCCC(=O)Nc1ccc(Cl)cc1C	> 100	> 100	> 100	> 100	–	> 100	–	> 100	–	–	–	–	–	–	–	> 100	–	–	> 100	–
Cc1ccc(/C=C(\C#N)n2nnc3cc(Cl)c(Cl)cc32)cc1	–	36.4	6.48	9.65	> 100	3.65	5.69	6.52	–	4.4	2.26	1.61	2.6	1.81	2.18	5.66	2.01	2.43	> 100	1.32
CC(=O)Nc1ccc2nncnc2c1	> 100	> 100	> 100	–	> 100	> 100	–	> 100	–	–	–	–	–	–	–	> 100	–	–	> 100	–
